The values that follow are results of earlier work, collected in US20100021530A1, “ENHANCED TRANS-KERATIN DRUG DELIVERY” (Innovation Biomedical Devices, Inc., priority 2008, published 2010).

The data set relates to Tinea unguium or onychomycosis (nail fungus). Conditions: topical, after a year of treatment, at best.

For `Cc1cc(C2CCCCC2)n(O)c(=O)c1` [ciclopirox], the cure rate result is “around 20%”.
